Assays:
Format in all cases: in vivo, C57BL/6 mice
[1] = tested on: BLM-induced pulmonary fibrosis model mice; experiment: Lung hydroxyproline content in BLM-induced pulmonary fibrosis model mice; details: for Lung hydroxyproline contents / Lung Hyp (lung hydroxyproline content): sacrifice day 21, mean ± SD
Procedure: On day 0, twenty mice were intratracheally administered BLM (Nippon Kayaku, Japan) in 0.9% saline in a volume of 50 μL per animal using a Microsprayer® (Penn-Century, USA). MN-001 and vehicle were administered by oral route in a volume of 10 mL/kg. MN-001 was administered at doses of 30, 100, 300 mg/kg once daily. To quantify lung hydroxyproline content, frozen left lung samples (15-25 mg) were processed by an alkaline-acid hydrolysis method as follows. Lung samples were acid-hydrolyzed with 400 μL of 6N HCl at 121° C. for 20 minutes, and neutralized with 400 μL of 4N NaOH containing 10 mg/mL activated carbon. AC buffer (2.2M acetic acid/0.48M citric acid, 400 μL) was added to the samples, followed by centrifugation to collect the supernatant. A standard curve of hydroxyproline was constructed with serial dilutions of trans-4-hydroxy-L-proline (Sigma-Aldrich, USA) starting at 16 μg/mL. The prepared samples and standards (each 400 μL) were mixed with 400 μL chloramine T solution (Wako Pure Chemical Industries Japan) and incubated for 25 minutes at room temperature. The samples were then mixed with Ehrlich's solution (400 μL) and heated at 65° C. for 20 minutes to develop the color. After samples were cooled on ice and centrifuged to remove precipitates, the optical density of each supernatant was measured at 560 nm. The concentrations of hydroxyproline were calculated from the hydroxyproline standard curve. Lung hydroxyproline levels were expressed as […].

[2] = tested on: BLM-induced pulmonary fibrosis in mice; experiment: Bleomycin (BLM)-induced pulmonary fibrosis in mice, therapeutic regimen, overall conclusion; details: administered after detecting fibrosis (therapeutic regimen, from day 7 after BLM)
Procedure: As evidenced by Ashcroft score and lung hydroxyproline content, pulmonary fibrosis was established in all BLM-treated mice. […] In the present study, MN-001 was administered at day 7 after BLM administration. Since BLM induced fibrogenic reaction already at day 7, the treatment schedule in the present study is considered to be a “therapeutic regimen”. […] On day 0, twenty mice were intratracheally administered BLM (Nippon Kayaku, Japan) in 0.9% saline in a volume of 50 μL per animal using a Microsprayer® (Penn-Century, USA). MN-001 and vehicle were administered by oral route in a volume of 10 mL/kg. MN-001 was administered at doses of 30, 100, 300 mg/kg once daily.

[3] = tested on: BLM-induced pulmonary fibrosis model mice; experiment: Cellular analysis of BALF (total cell number) in BLM-induced pulmonary fibrosis model mice; details: for Total number of cells in BALF: sacrifice day 21, mean ± SD
Procedure: On day 0, twenty mice were intratracheally administered BLM (Nippon Kayaku, Japan) in 0.9% saline in a volume of 50 μL per animal using a Microsprayer® (Penn-Century, USA). MN-001 and vehicle were administered by oral route in a volume of 10 mL/kg. MN-001 was administered at doses of 30, 100, 300 mg/kg once daily. BALF samples were collected by flushing the lung via the trachea with sterile PBS three times (0.8 mL each). The first lavage was kept separate from the other two. BALF was centrifuged at 1,000×g for 3 minutes at 4° C. and the supernatant was collected and stored at −80° C. until use. The cell pellet from the first fraction and the remaining fractions of lavage fluid were pooled. Total cell number of BALF was counted with a hemocytometer.

[4] = tested on: BLM-induced pulmonary fibrosis model mice; experiment: Survival analysis in BLM-induced pulmonary fibrosis model mice
Procedure: (§1) On day 0, twenty mice were intratracheally administered BLM (Nippon Kayaku, Japan) in 0.9% saline in a volume of 50 μL per animal using a Microsprayer® (Penn-Century, USA).
(§2) MN-001 and vehicle were administered by oral route in a volume of 10 mL/kg.
(§3) MN-001 was administered at doses of 30, 100, 300 mg/kg once daily.
(§4) The viability, clinical signs and behavior were monitored every day. Body weight was recorded daily after the day of starting the BLM administration (day 0). Animals were sacrificed by exsanguination through the abdominal aorta under pentobarbital sodium anesthesia (Kyoritsu, Japan).

[5] = tested on: BLM-induced pulmonary fibrosis model mice; experiment: CT evaluation of lung density in BLM-induced pulmonary fibrosis model mice; details: for Lung density on day 0 / Lung density on day 7: CT, mean ± SD; for Lung density on day 0: day 0 (before BLM administration and before treatment); for Lung density on day 7: day 7 after BLM (start of treatment)
Procedure: On day 0, twenty mice were intratracheally administered BLM (Nippon Kayaku, Japan) in 0.9% saline in a volume of 50 μL per animal using a Microsprayer® (Penn-Century, USA). MN-001 and vehicle were administered by oral route in a volume of 10 mL/kg. MN-001 was administered at doses of 30, 100, 300 mg/kg once daily. […] The mice were mounted on a holder and placed in the X-ray CT system (LCT-200, Aloka, Japan) under pentobarbital sodium (Kyoritu Seiyaku, Japan) anesthesia. The images were converted into DICOM format and analyzed with Onis Viewer (DigitalCore, Japan). Two section slides (upper: forth dorsal vertebra, lower: seventh dorsal vertebra) were determined from each scan data set, and eight regions of interest (ROI) were defined in the following areas: the right upper anterior and posterior regions, the left upper anterior and posterior region. The means of the intensity of the eight ROIs were defined as an individual's level of lung density.

[6] = tested on: BLM-induced pulmonary fibrosis model mice; experiment: as above; details: for Lung density on day 21: CT, mean ± SD
[7] = tested on: BLM-induced pulmonary fibrosis model mice; experiment: Histopathological analysis (Masson's trichrome staining, Ashcroft score) in BLM-induced pulmonary fibrosis model mice; details: for Ashcroft score: sacrifice day 21, mean ± SD
Procedure: On day 0, twenty mice were intratracheally administered BLM (Nippon Kayaku, Japan) in 0.9% saline in a volume of 50 μL per animal using a Microsprayer® (Penn-Century, USA). MN-001 and vehicle were administered by oral route in a volume of 10 mL/kg. MN-001 was administered at doses of 30, 100, 300 mg/kg once daily. Right lung tissues prefixed in 10% neutral buffered formalin were embedded in paraffin and sectioned at […] sections were stained with Masson's trichrome staining Kit (Sigma, USA) according to the manufacturer's instructions. The degree of pulmonary fibrosis was evaluated using the Ashcroft score (Ashcroft, T., et al., J Clin Pathol, 1988; 41:467-70) for the quantitative histological analysis.

[8] = Body weight changes in BLM-induced pulmonary fibrosis model mice; details: for Body weight changes (%) on the day of sacrifice: percentage of baseline (day 0), mean ± SD
Procedure: Seven-week-old female C57BL/6 mice (17-21 g) were obtained from Japan SLC (Japan). Animals were housed and fed with normal diet (CE-2; CLEA Japan) under conventional conditions. All animals used in this study were cared following appropriate guidelines.
as §1, §2, §3, §4
Body weight was expressed as percentage body weight change from baseline (day 0).

[9] = MN-001 30 mg/kg oral once daily day 7 to 20
[10] = MN-001 30 mg/kg oral once daily day 7 to 20, n = 8
[11] = MN-001 100 mg/kg oral once daily day 7 to 20
[12] = MN-001 100 mg/kg oral once daily day 7 to 20, n = 10
[13] = MN-001 300 mg/kg oral once daily day 7 to 20
[14] = MN-001 300 mg/kg oral once daily day 7 to 20, n = 10
[15] = MN-001 treatment, all doses, administered from day 7 after BLM
[16] = MN-001 30 mg/kg oral once daily day 7 to 20, n = 8, 30 mg/kg
[17] = MN-001 100 mg/kg oral once daily day 7 to 20, n = 10, 100 mg/kg
[18] = MN-001 300 mg/kg oral once daily day 7 to 20, n = 10, 300 mg/kg

CCCc1c(SCCCOc2ccc(C(C)=O)c(OCCCC(=O)O)c2CCC)ccc(C(C)=O)c1O [MN-001]
Lung hydroxyproline contents compared to the Vehicle group ([1]; MN-001 30 mg/kg group): significantly decreased | Lung hydroxyproline contents [1, 9]: 49.8±7.9 μg/left lung | Lung Hyp (lung hydroxyproline content) [1, 10]: 49.8 ± 7.9 µg/left lung | Lung hydroxyproline contents compared to the Vehicle group ([1]; MN-001 100 mg/kg group): significantly decreased | Lung hydroxyproline contents [1, 11]: 56.1±10.1 μg/left lung | Lung Hyp (lung hydroxyproline content) [1, 12]: 56.1 ± 10.1 µg/left lung | Lung hydroxyproline contents [1, 13]: 56.4±12.7 μg/left lung | Lung Hyp (lung hydroxyproline content) [1, 14]: 56.4 ± 12.7 µg/left lung | Lung hydroxyproline content compared to the Vehicle group ([1]; MN-001 300 mg/kg treatment): tended to decrease | Lung hydroxyproline content compared to the Vehicle group at day 21 (summary) [1, 15]: significant reduction or a decreasing trend | Anti-fibrogenic effect [2]: significant anti-fibrogenic effect | Total number of cells in BALF [3, 9]: 65.1±26.1 ×10^5 cells | Total number of cells in BALF [3, 11]: 124.4±127.3 ×10^4 cells | Total number of cells in BALF [3, 13]: 76.0±35.0 ×10^5 cells | Total number of cells in BALF compared to the Vehicle group ([3]; any MN-001 treated groups): no significant differences | Mice died before reaching day 21 ([4]; MN-001 30 mg/kg group, during the treatment period (Vehicle: two out of 10)): Two out of 10 | Survival rate compared to the Vehicle group ([4]; MN-001 treated groups (30, 100, 300 mg/kg)): no significant differences | Lung density on day 0 ([5]; MN-001 30 mg/kg group, n = 8): −445 ± 17 | Lung density on day 7 ([5]; MN-001 30 mg/kg group, n = 8): −375 ± 77 | Lung density on day 0 ([5]; MN-001 100 mg/kg group, n = 10): −444 ± 18 | Lung density on day 7 ([5]; MN-001 100 mg/kg group, n = 10): −343 ± 84 | Lung density on day 0 ([5]; MN-001 300 mg/kg group, n = 10): −423 ± 19 | Lung density on day 7 ([5]; MN-001 300 mg/kg group, n = 10): −415 ± 83 | Lung density, visually observed in the graphs (FIGS. 1.1 to 1.3) ([5]; MN-001 treated groups vs Vehicle): downward trend | Lung density on day 21 [6, 10]: −186 ± 84 | Lung density on day 21 [6, 12]: −200 ± 122 | Lung density on day 21 [6, 14]: −260 ± 107 | Lung density on day 0, 7 and 21 compared to the Vehicle group ([6]; any of the MN-001 treated groups, statistical comparison): no significant differences | Ashcroft score [7, 16]: 2.0±0.7 | Ashcroft score compared to the Vehicle group ([7]; MN-001 30 mg/kg treatment): tended to decrease | Ashcroft score [7, 17]: 2.2±0.8 | Ashcroft score compared to the Vehicle group ([7]; MN-001 100 mg/kg treatment): tended to decrease | Ashcroft score compared to the Vehicle group ([7]; MN-001 300 mg/kg group): significantly decreased | Ashcroft score [7, 18]: 1.8±0.6 | Ashcroft score compared to the Vehicle group at day 21 (summary) [7, 15]: significant reduction or a decreasing trend | Body weight changes (%) on the day of sacrifice [8, 16]: 104.8±3.7% | Body weight changes (%) on the day of sacrifice [8, 17]: 100.9±10.6% | Body weight changes (%) on the day of sacrifice [8, 18]: 104.2±4.1% | Mean body weight loss on the day of sacrifice compared to the Vehicle group ([8]; MN-001 treated groups (30, 100, 300 mg/kg), Bonferroni multiple comparison test): no significant differences
